In patent US20210309619A1, “ISOXAZOLIN-5-ONE DERIVATIVES AND HERBICIDES CONTAINING THE SAME AS ACTIVE INGREDIENTS” (HOKKO CHEMICAL INDUSTRY CO., LTD., priority 2018, published 2021):

How the values were obtained:
Assay type in all cases: in vivo
Chenopodium album [1] = assay: Herbicidal effect test by treatment of dry field farming soil (Test Example 3); details: 120 g/10 a, sprayed one day after seeding, 14 days after treatment
Source text: (§1) Herbicidal Rate (%)={1−(Average Dry Weight (g) of Plant of Treated Area)/(Average Dry Weight (g) of Plant of Untreated Area)}×100 [Math. 1] Pots with a size of 36 cm^2 were filled with a dry field farming soil (alluvium). The soil of the top layer of 1 cm and seeds of weeds, namely southern crabgrass, Echinochloa crus-galli, Chenopodium album and Amaranthus viridis, 20 seeds each, were evenly mixed, and the top layer was gently pressed. Emulsions prepared using the compounds in Table 5 below according to Formulation Example 5 were diluted with water one day after seeding, and the water-diluted agent solutions were sprayed to the soil surfaces at a ratio of 100 liters per 10 ares. A converted amount of the applied active ingredient corresponded to 120 g per 10 ares. The herbicidal effects were evaluated by the same standard as that in Test Example 1, 14 days after the treatment with the agents. In this regard, the compound numbers in Table 5 are the same as those in Table 1 and Table 2 above.

Amaranthus viridis [2] = assay: as above; details: 120 g/10 a, sprayed one day after seeding, 14 days after treatment
Source text: as §1

southern crabgrass [3] = assay: as above; details: 120 g/10 a, sprayed one day after seeding, 14 days after treatment
Source text: as §1

Echinochloa crus-galli [4] = assay: as above; details: 120 g/10 a, sprayed one day after seeding, 14 days after treatment
Source text: as §1

Scirpus juncoides [5] = assay: Herbicidal effect test by treatment during growing period in paddy rice cultivation (Test Example 2); details: 120 g/10 a, treated seven days after seeding, 14 days after treatment
Source text: (§2) Herbicidal Rate (%)={1−(Average Dry Weight (g) of Plant of Treated Area)/(Average Dry Weight (g) of Plant of Untreated Area)}×100 [Math. 1]
(§3) Wagner pots with an area of 1/10000 ares were filled with a paddy soil, and a compound fertilizer (N:P:K=17:17:17) was mixed after addition of water, followed by soil puddling. Then, Echinochloa crus-galli, broad leaf weeds (Lindernia pyxidaria and Monochoria vaginalis) and Scirpus juncoides, 30 seeds each, were sown in a depth of 0 to 1 cm. Water was poured immediately after seeding, and the water depth was kept at about 3 cm. A subsequent management was conducted in a glass greenhouse. Emulsions prepared using the compounds in Table 4 below according to Formulation Example 5 were diluted with water seven days after seeding, and a certain amount of the water-diluted agent solutions were dropped. A converted amount of the applied active ingredient corresponded to 120 g per 10 ares. The test was conducted in a double system per one agent solution concentration area, and the herbicidal rates (%) were determined by the equation (Math. 1) 14 days after the treatment with the agents. In this regard, the compound numbers in Table 4 are the same as those in Table 1 and Table 2 above.

Lindernia pyxidaria [6] = assay: as above; details: 120 g/10 a, treated seven days after seeding, 14 days after treatment
Source text: as §2, §3

Monochoria vaginalis [7] = assay: as above; details: 120 g/10 a, treated seven days after seeding, 14 days after treatment
Source text: as §2, §3

Echinochloa crus-galli [8] = assay: as above; details: 120 g/10 a, treated seven days after seeding, 14 days after treatment
Source text: as §2, §3

Scirpus juncoides [9] = assay: Herbicidal effect test by treatment of rice paddy soil (Test Example 1); details: 120 g/10 a, treated immediately after seeding, 14 days after treatment
Protocol: (§4) Wagner pots with an area of 1/10000 ares were filled with a paddy soil, and a compound fertilizer (N:P:K=17:17:17) was mixed after water was added, followed by soil puddling. Then, Echinochloa crus-galli, broad leaf weeds (Lindernia pyxidaria and Monochoria vaginalis) and Scirpus juncoides, 30 seeds each, were sown in a depth of 0 to 1 cm. Water was poured immediately after seeding, and the water depth was kept at about 3 cm. A subsequent management was conducted in a glass greenhouse. Immediately after that, emulsions prepared using the compounds in Table 3 below according to Formulation Example 5 were diluted with water, and a certain amount of the water-diluted agent solutions were dropped. A converted amount of the applied active ingredient corresponded to 120 g per 10 ares.
(§5) This test was conducted in a double system per one agent solution concentration area, and the herbicidal rates (%) were determined by the following equation (Math. 1) 14 days after the treatment with the agents.
as §2

Lindernia pyxidaria [10] = assay: as above; details: 120 g/10 a, treated immediately after seeding, 14 days after treatment
Protocol: as §4, §5, §2

Monochoria vaginalis [11] = assay: as above; details: 120 g/10 a, treated immediately after seeding, 14 days after treatment
Protocol: as §4, §5, §2

Echinochloa crus-galli [12] = assay: as above; details: 120 g/10 a, treated immediately after seeding, 14 days after treatment
Protocol: as §4, §5, §2

Chenopodium album [13] = assay: Herbicidal effect test by treatment of stem and leaf in dry field farming (Test Example 4); details: 120 g/10 a, stem and leaf treatment seven days after seeding, 14 days after treatment
Source text: as §1, with “Table 6” for “Table 5”, “water seven days” for “water one day”

Amaranthus viridis [14] = assay: as above; details: 120 g/10 a, stem and leaf treatment seven days after seeding, 14 days after treatment
Source text: as §1, with “Table 6” for “Table 5”, “water seven days” for “water one day”

southern crabgrass [15] = assay: as above; details: 120 g/10 a, stem and leaf treatment seven days after seeding, 14 days after treatment
Source text: as §1, with “Table 6” for “Table 5”, “water seven days” for “water one day”

Echinochloa crus-galli [16] = assay: as above; details: 120 g/10 a, stem and leaf treatment seven days after seeding, 14 days after treatment
Source text: as §1, with “Table 6” for “Table 5”, “water seven days” for “water one day”

COC1CCCC1n1oc(=O)c(Cc2ccccc2N(S(=O)(=O)C(F)(F)F)S(=O)(=O)C(F)(F)F)c1C (stereo not shown) [Compound 349, 1,1,1-trifluoro-N-[2-[[(2-methoxycyclopentyl)-3-methyl-5-oxoisoxazol-4-yl]methyl]phenyl]-N-(trifluoromethylsulfonyl)methanesulfonamide]
Herbicidal rate, Chenopodium album (Chenopodium album [1]): 60% | Herbicidal rate, Amaranthus viridis (Amaranthus viridis [2]): 90% | Herbicidal rate, southern crabgrass (southern crabgrass [3]): 90% | Herbicidal rate, Echinochloa crus-galli (Echinochloa crus-galli [4]): 90% | Herbicidal rate, Scirpus juncoides (Scirpus juncoides [5]): 90% | Herbicidal rate, Lindernia pyxidaria (Lindernia pyxidaria [6]): 80% | Herbicidal rate, Monochoria vaginalis (Monochoria vaginalis [7]): 80% | Herbicidal rate, Echinochloa crus-galli (Echinochloa crus-galli [8]): 100% | Herbicidal rate, Scirpus juncoides (Scirpus juncoides [9]): 90% | Herbicidal rate, Lindernia pyxidaria (Lindernia pyxidaria [10]): 100% | Herbicidal rate, Monochoria vaginalis (Monochoria vaginalis [11]): 100% | Herbicidal rate, Echinochloa crus-galli (Echinochloa crus-galli [12]): 100% | Herbicidal rate, Chenopodium album (Chenopodium album [13]): 80% | Herbicidal rate, Amaranthus viridis (Amaranthus viridis [14]): 80% | Herbicidal rate, southern crabgrass (southern crabgrass [15]): 80% | Herbicidal rate, Echinochloa crus-galli (Echinochloa crus-galli [16]): 90%

COC1CCCCC1n1oc(=O)c(Cc2ccccc2N(C(=O)Oc2ccccc2)S(=O)(=O)C(F)(F)F)c1C (single isomer, unassigned) [Compound 288]
Herbicidal rate, Chenopodium album (Chenopodium album [1]): 60% | Herbicidal rate, Amaranthus viridis (Amaranthus viridis [2]): 40% | Herbicidal rate, southern crabgrass (southern crabgrass [3]): 90% | Herbicidal rate, Echinochloa crus-galli (Echinochloa crus-galli [4]): 90% | Herbicidal rate, Scirpus juncoides (Scirpus juncoides [5]): 90% | Herbicidal rate, Lindernia pyxidaria (Lindernia pyxidaria [6]): 90% | Herbicidal rate, Monochoria vaginalis (Monochoria vaginalis [7]): 90% | Herbicidal rate, Echinochloa crus-galli (Echinochloa crus-galli [8]): 100% | Herbicidal rate, Scirpus juncoides (Scirpus juncoides [9]): 100% | Herbicidal rate, Lindernia pyxidaria (Lindernia pyxidaria [10]): 100% | Herbicidal rate, Monochoria vaginalis (Monochoria vaginalis [11]): 100% | Herbicidal rate, Echinochloa crus-galli (Echinochloa crus-galli [12]): 100% | Herbicidal rate, Chenopodium album (Chenopodium album [13]): 90% | Herbicidal rate, Amaranthus viridis (Amaranthus viridis [14]): 90% | Herbicidal rate, southern crabgrass (southern crabgrass [15]): 90% | Herbicidal rate, Echinochloa crus-galli (Echinochloa crus-galli [16]): 90%

COC1CCCC1n1oc(=O)c(Cc2ccccc2N(C(=O)CC(C)C)S(=O)(=O)C(F)(F)F)c1C (stereo not shown) [Compound 119]
Herbicidal rate, Chenopodium album (Chenopodium album [1]): 60% | Herbicidal rate, Amaranthus viridis (Amaranthus viridis [2]): 60% | Herbicidal rate, southern crabgrass (southern crabgrass [3]): 90% | Herbicidal rate, Echinochloa crus-galli (Echinochloa crus-galli [4]): 90% | Herbicidal rate, Scirpus juncoides (Scirpus juncoides [5]): 90% | Herbicidal rate, Lindernia pyxidaria (Lindernia pyxidaria [6]): 80% | Herbicidal rate, Monochoria vaginalis (Monochoria vaginalis [7]): 90% | Herbicidal rate, Echinochloa crus-galli (Echinochloa crus-galli [8]): 100% | Herbicidal rate, Scirpus juncoides (Scirpus juncoides [9]): 100% | Herbicidal rate, Lindernia pyxidaria (Lindernia pyxidaria [10]): 100% | Herbicidal rate, Monochoria vaginalis (Monochoria vaginalis [11]): 100% | Herbicidal rate, Echinochloa crus-galli (Echinochloa crus-galli [12]): 100% | Herbicidal rate, Chenopodium album (Chenopodium album [13]): 90% | Herbicidal rate, Amaranthus viridis (Amaranthus viridis [14]): 90% | Herbicidal rate, southern crabgrass (southern crabgrass [15]): 80% | Herbicidal rate, Echinochloa crus-galli (Echinochloa crus-galli [16]): 90%

COC1CCCC1n1oc(=O)c(Cc2ccccc2N(C(=O)OC(C)C)S(=O)(=O)C(F)(F)F)c1C (stereo not shown) [Compound 212]
Herbicidal rate, Chenopodium album (Chenopodium album [1]): 60% | Herbicidal rate, Amaranthus viridis (Amaranthus viridis [2]): 60% | Herbicidal rate, southern crabgrass (southern crabgrass [3]): 90% | Herbicidal rate, Echinochloa crus-galli (Echinochloa crus-galli [4]): 90% | Herbicidal rate, Scirpus juncoides (Scirpus juncoides [5]): 90% | Herbicidal rate, Lindernia pyxidaria (Lindernia pyxidaria [6]): 80% | Herbicidal rate, Monochoria vaginalis (Monochoria vaginalis [7]): 90% | Herbicidal rate, Echinochloa crus-galli (Echinochloa crus-galli [8]): 100% | Herbicidal rate, Scirpus juncoides (Scirpus juncoides [9]): 100% | Herbicidal rate, Lindernia pyxidaria (Lindernia pyxidaria [10]): 100% | Herbicidal rate, Monochoria vaginalis (Monochoria vaginalis [11]): 100% | Herbicidal rate, Echinochloa crus-galli (Echinochloa crus-galli [12]): 100% | Herbicidal rate, Chenopodium album (Chenopodium album [13]): 90% | Herbicidal rate, Amaranthus viridis (Amaranthus viridis [14]): 90% | Herbicidal rate, southern crabgrass (southern crabgrass [15]): 80% | Herbicidal rate, Echinochloa crus-galli (Echinochloa crus-galli [16]): 90%

COC1CCCC1n1oc(=O)c(Cc2ccccc2NS(=O)(=O)C(F)(F)F)c1C (stereo not shown) [Compound 59, 1,1,1-trifluoro-N-[2-[[(2-methoxycyclopentyl)-3-methyl-5-oxoisoxazol-4-yl]methyl]phenyl]methanesulfonamide]
Herbicidal rate, Chenopodium album (Chenopodium album [1]): 60% | Herbicidal rate, Amaranthus viridis (Amaranthus viridis [2]): 60% | Herbicidal rate, southern crabgrass (southern crabgrass [3]): 90% | Herbicidal rate, Echinochloa crus-galli (Echinochloa crus-galli [4]): 90% | Herbicidal rate, Scirpus juncoides (Scirpus juncoides [5]): 90% | Herbicidal rate, Lindernia pyxidaria (Lindernia pyxidaria [6]): 80% | Herbicidal rate, Monochoria vaginalis (Monochoria vaginalis [7]): 90% | Herbicidal rate, Echinochloa crus-galli (Echinochloa crus-galli [8]): 100% | Herbicidal rate, Scirpus juncoides (Scirpus juncoides [9]): 100% | Herbicidal rate, Lindernia pyxidaria (Lindernia pyxidaria [10]): 100% | Herbicidal rate, Monochoria vaginalis (Monochoria vaginalis [11]): 100% | Herbicidal rate, Echinochloa crus-galli (Echinochloa crus-galli [12]): 100% | Herbicidal rate, Chenopodium album (Chenopodium album [13]): 90% | Herbicidal rate, Amaranthus viridis (Amaranthus viridis [14]): 90% | Herbicidal rate, southern crabgrass (southern crabgrass [15]): 90% | Herbicidal rate, Echinochloa crus-galli (Echinochloa crus-galli [16]): 90%

COC1CCCCC1n1oc(=O)c(Cc2ccccc2NS(=O)(=O)C(F)(F)F)c1C (stereo not shown) [Compound 62, 1,1,1-trifluoro-N-[2-[[(2-methoxycyclohexyl)-3-methyl-5-oxoisoxazol-4-yl]methyl]phenyl]methanesulfonamide]
Herbicidal rate, Chenopodium album (Chenopodium album [1]): 60% | Herbicidal rate, Amaranthus viridis (Amaranthus viridis [2]): 60% | Herbicidal rate, southern crabgrass (southern crabgrass [3]): 90% | Herbicidal rate, Echinochloa crus-galli (Echinochloa crus-galli [4]): 90% | Herbicidal rate, Scirpus juncoides (Scirpus juncoides [5]): 90% | Herbicidal rate, Lindernia pyxidaria (Lindernia pyxidaria [6]): 80% | Herbicidal rate, Monochoria vaginalis (Monochoria vaginalis [7]): 90% | Herbicidal rate, Echinochloa crus-galli (Echinochloa crus-galli [8]): 100% | Herbicidal rate, Scirpus juncoides (Scirpus juncoides [9]): 100% | Herbicidal rate, Lindernia pyxidaria (Lindernia pyxidaria [10]): 100% | Herbicidal rate, Monochoria vaginalis (Monochoria vaginalis [11]): 100% | Herbicidal rate, Echinochloa crus-galli (Echinochloa crus-galli [12]): 100% | Herbicidal rate, Chenopodium album (Chenopodium album [13]): 90% | Herbicidal rate, Amaranthus viridis (Amaranthus viridis [14]): 90% | Herbicidal rate, southern crabgrass (southern crabgrass [15]): 90% | Herbicidal rate, Echinochloa crus-galli (Echinochloa crus-galli [16]): 90%

COC1CCCC1n1oc(=O)c(Cc2ccccc2N(C(=O)Oc2ccccc2)S(=O)(=O)C(F)(F)F)c1C (stereo not shown) [Compound 286]
Herbicidal rate, Chenopodium album (Chenopodium album [1]): 60% | Herbicidal rate, Amaranthus viridis (Amaranthus viridis [2]): 60% | Herbicidal rate, southern crabgrass (southern crabgrass [3]): 90% | Herbicidal rate, Echinochloa crus-galli (Echinochloa crus-galli [4]): 90% | Herbicidal rate, Scirpus juncoides (Scirpus juncoides [5]): 90% | Herbicidal rate, Lindernia pyxidaria (Lindernia pyxidaria [6]): 80% | Herbicidal rate, Monochoria vaginalis (Monochoria vaginalis [7]): 90% | Herbicidal rate, Echinochloa crus-galli (Echinochloa crus-galli [8]): 100% | Herbicidal rate, Scirpus juncoides (Scirpus juncoides [9]): 100% | Herbicidal rate, Lindernia pyxidaria (Lindernia pyxidaria [10]): 100% | Herbicidal rate, Monochoria vaginalis (Monochoria vaginalis [11]): 100% | Herbicidal rate, Echinochloa crus-galli (Echinochloa crus-galli [12]): 100% | Herbicidal rate, Chenopodium album (Chenopodium album [13]): 90% | Herbicidal rate, Amaranthus viridis (Amaranthus viridis [14]): 90% | Herbicidal rate, southern crabgrass (southern crabgrass [15]): 80% | Herbicidal rate, Echinochloa crus-galli (Echinochloa crus-galli [16]): 90%
